The text below walks through data of PubChem BioAssay (NCI).

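Exposure lasted 48 hours, with cells grown in 96-well plates and compounds tested at five concentrations. TGI: total growth inhibition.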

Holding throughout (assay): growth of human tumour cells (NCI), 48 h
In experiment [1] the test system is SF-268 CNS.
In experiment [2] the test system is KM12 colon.
Experiment [3] concerns K-562 leukemia.
Experiment [4] relates to SNB-19 CNS.
Experiment [5] deals with SK-MEL-2 melanoma.
Experiment [6] relates to HCT-15 colon.
The test system of experiment [7] is UACC-62 melanoma.
The test system of experiment [8] is NCI/ADR-RES ovarian.
Experiment [9] concerns A549 NSCLC.
The subject of experiment [10] is HCC-2998 colon.

On to `CC1(C)CC(=O)C2=C(C1)OC1=C(CC(C)(C)CC1=O)C2c1ccccc1[N+](=O)[O-]` (stereo not given), for which the TGI in experiment [1], in experiment [2], in [3], in experiment [4], in experiment [5] and in experiment [6] was over 100 µM each time. Further, the TGI in [7], in [8], in experiment [9] and in experiment [10] was over 100 µM in each case.
`O=C1Nc2ccccc2Nc2ccncc21`: the TGI in experiment [1], in experiment [2], in experiment [3], in experiment [4], in experiment [5] and in experiment [6] was over 100 µM in each case. Further, the TGI in experiment [7], in experiment [8], in experiment [9] and in experiment [10] was over 100 µM in each case.
`O=C(NNc1nc(-c2ccccc2)cs1)C(F)(F)F`: the TGI in experiment [1] was over 100 µM; in [2] it was over 100 µM; in [3] it was 93.5 µM; in [4], over 100 µM; in experiment [5], over 100 µM; in experiment [6], over 100 µM. Moreover, the TGI in experiment [7], in experiment [8], in experiment [9] and in experiment [10] was over 100 µM each time.
Consider `CC(=O)Oc1ccc(/C=C/C(=O)O[C@@H](C(=O)O)[C@@H](OC(=O)/C=C/c2ccc(OC(C)=O)c(OC(C)=O)c2)C(=O)O)cc1OC(C)=O`, for which the TGI in experiment [1], in experiment [2], in experiment [3], in experiment [4], in experiment [5] and in [6] was over 100 µM in each case. The TGI in experiment [7], in experiment [8], in experiment [9] and in experiment [10] was over 100 µM each time.
As for `C[Si](C)(c1ccccc1)[C@H]1CCCC=C1CCNC1c2ccccc2CCc2ccccc21`, the TGI in [1], in [2], in [3], in [4], in [5] and in experiment [6] was over 100 µM each time. In addition, the TGI in [7], in experiment [8], in [9] and in [10] was over 100 µM each time.
For `CSc1c(C(=O)Nc2ccc(Cl)cc2)c(N)n(N)c(=O)c1C#N`, the TGI in experiment [1], in [2], in experiment [3], in [4], in [5] and in experiment [6] was over 100 µM each time. Moreover, the TGI in experiment [7], in experiment [8], in experiment [9] and in [10] was over 100 µM each time.
Consider `C/C1=C\C=C(\C(C)C)CC/C(C(=O)O)=C\CC/C(C)=C/CC1`, for which the TGI in experiment [1] was over 100 µM; in [2], 41.8 µM; in experiment [3] it was 74.8 µM; in [4], 51.2 µM; in experiment [5], 32.8 µM; in experiment [6], 51.1 µM. Further, the TGI in [7] is 25.8 µM; in experiment [8] it was 76.2 µM; in experiment [9] it was over 100 µM; in [10], 33.8 µM.
Regarding `CN(C)c1cc[n+](-c2nc(/N=C(\[O-])C(F)(F)F)nc3c2ncn3C2CC(O)C(CO)O2)cc1` (stereo not given), the TGI in experiment [1], in experiment [2], in experiment [3], in experiment [4], in experiment [5] and in [6] was over 100 µM each time. Besides, the TGI in experiment [7], in experiment [8], in experiment [9] and in experiment [10] was over 100 µM throughout.
With `Fc1cccc(F)c1C1SCc2nc3ccc(Cl)cc3n21` (stereo not given), the TGI in [1], in experiment [2], in experiment [3], in [4], in [5] and in experiment [6] was over 100 µM throughout. The TGI in experiment [7], in [8], in [9] and in [10] was over 100 µM throughout.
Regarding `C[Si](C)(C)C1=C([Si](C)(C)C)C(Cl)(Cl)C1=O`, the TGI came out at 21.1 µM in [1]; 18.9 µM in experiment [2]; 2.88 µM in [3]; 36.5 µM in experiment [4]; 34.6 µM in experiment [5]; 4.05 µM in experiment [6]. Also, the TGI in experiment [7] stood at 7.69 µM; in experiment [8], 27.1 µM; in experiment [9], 49.7 µM; in experiment [10], 17.6 µM.
Regarding `CCN(CC)c1ccc(/C=C/C=C2C(=O)NC(=S)NC2=O)cc1`, the TGI in [1] was over 100 µM; in [2] it was over 100 µM; in [3] it was over 75.1 µM; in [4], over 100 µM; in [5], over 100 µM; in experiment [6], over 100 µM. Further, the TGI in experiment [7] was over 100 µM; in experiment [8], 41.8 µM; in experiment [9], over 100 µM; in experiment [10] it was over 100 µM.
For `O=C(CCc1ccccc1)On1c(-c2ccccc2)nc2ccccc2c1=S`, the TGI was over 100 µM in experiment [1]; 24 µM in [2]; over 100 µM in [3]; over 100 µM in experiment [4]; 37.5 µM in experiment [5]; 67.5 µM in [6]. Further, the TGI in experiment [7] was 36.9 µM; in [8], 79.1 µM; in experiment [9] it was over 100 µM; in experiment [10] it was 27.8 µM.
On to `COc1ccc(C(C2=C(O)COC2=O)c2cc3c(cc2O)OCO3)cc1OC` (stereo not given), for which the TGI in [1], in experiment [2], in experiment [3], in [4], in experiment [5] and in [6] was over 100 µM each time. Also, the TGI in [7], in experiment [8], in [9] and in experiment [10] was over 100 µM throughout.
On to `O=[N+]([O-])c1ccc(O)c(/C=N/NC(=S)N2CCCCC2)c1`, for which the TGI was 24.6 µM in [1]; 40 µM in experiment [2]; over 100 µM in experiment [3]; over 53.6 µM in [4]; 50.4 µM in experiment [5]; 44.1 µM in experiment [6]. For the same molecule, the TGI in experiment [7] was over 30.5 µM; in experiment [8] it was 3.85 µM; in experiment [9], over 100 µM; in experiment [10] it was 34.1 µM.
As to `C[N+]1(CCN[N+]2(C)CCCCC2)CCc2ccccc2C1` (stereo not given), the TGI in experiment [1], in experiment [2], in experiment [3], in experiment [4], in experiment [5] and in [6] was over 100 µM in each case. Also, the TGI in experiment [7], in experiment [8], in experiment [9] and in experiment [10] was over 100 µM throughout.
As to `COc1ccc(/C=C/C2=NN(c3cccc(S(=O)(=O)O)c3)C3(C2)SCC(=O)N3c2nc3ccccc3s2)cc1` (stereo not given), the TGI in [1], in experiment [2], in experiment [3], in experiment [4], in experiment [5] and in experiment [6] was over 100 µM in each case. Also, the TGI in [7], in [8], in experiment [9] and in experiment [10] was over 100 µM throughout.
Take `CC(=O)N1CCn2c1nc1cc(Cl)ccc12`: the TGI in experiment [1] is over 100 µM; in [2] it was over 100 µM; in [3], over 100 µM; in experiment [4], over 100 µM; in experiment [5], 92.4 µM; in experiment [6], over 100 µM. Further, the TGI in experiment [7], in experiment [8], in experiment [9] and in [10] was over 100 µM throughout.
Regarding `O=C(CCc1ccccc1)ON1C(=S)C(c2ccccc2)(c2ccccc2)N=C1Sc1ccccc1`, the TGI in experiment [1], in experiment [2], in [3], in experiment [4], in experiment [5] and in [6] was over 100 µM throughout. Also, the TGI in experiment [7], in [8], in experiment [9] and in [10] was over 100 µM in each case.
On to `S=C(Nc1ccc2cn[nH]c2c1)Nc1ccc2cn[nH]c2c1`, for which the TGI in [1], in experiment [2], in experiment [3], in experiment [4], in experiment [5] and in experiment [6] was over 100 µM throughout. For the same molecule, the TGI in [7], in experiment [8], in experiment [9] and in experiment [10] was over 100 µM throughout.
Turning to `O=C(Nc1ccccc1)c1cc(S(=O)(=O)N2CCNNC2=O)c(S)cc1Cl`, the TGI in experiment [1], in experiment [2], in experiment [3], in [4], in experiment [5] and in experiment [6] was over 100 µM in each case. The TGI in experiment [7], in [8], in experiment [9] and in experiment [10] was over 100 µM in each case.
In the case of `CC1C(c2ccc(Cl)cc2)c2cc3c(cc2OC1N1CCOCC1)OCO3` (stereo not given), the TGI in [1], in experiment [2], in experiment [3], in experiment [4], in experiment [5] and in [6] was over 100 µM in each case. Further, the TGI in experiment [7], in experiment [8], in experiment [9] and in [10] was over 100 µM each time.
With `CCN(CC)c1ccc2cc(C(=O)Nc3ccccn3)c(=N)oc2c1`, the TGI in experiment [1] was over 100 µM; in experiment [2], over 100 µM; in experiment [3], over 100 µM; in [4], 76.2 µM; in experiment [5] it was 95.7 µM; in [6], over 100 µM. For the same molecule, the TGI in [7], in experiment [8], in experiment [9] and in experiment [10] was over 100 µM in each case.
As to `COc1cc(N(Cc2ccc3oc(=O)c(-c4ccccc4)nc3c2)Cc2ccc3oc(=O)c(-c4ccccc4)nc3c2)cc(OC)c1OC`, the TGI in experiment [1], in experiment [2], in experiment [3], in experiment [4], in experiment [5] and in experiment [6] was over 10 µM each time. Moreover, the TGI in experiment [7], in [8], in [9] and in experiment [10] was over 10 µM each time.
For `CCOC(=O)Oc1ccc2c(c1)c(=O)c1c(NCCN(CC)CC)ccc3nnn2c31`, the TGI in experiment [1] is 17.1 µM; in experiment [2], 14.9 µM; in experiment [3] it was over 36.3 µM; in experiment [4], 15.9 µM; in experiment [5], 27 µM; in experiment [6] it was 16.6 µM. Further, the TGI was 24.3 µM in experiment [7], 18.9 µM in [8], 12.4 µM in [9] and 17.4 µM in experiment [10].
On to `O=C1Nc2ccccc2/C1=c1\[nH]c(=O)/c(=C\c2ccc(OCc3ccccc3)cn2)[nH]c1=O`, for which the TGI is over 100 µM in experiment [1]; over 100 µM in experiment [2]; 75.9 µM in [3]; over 100 µM in experiment [4]; over 100 µM in experiment [5]; over 100 µM in experiment [6]. Also, the TGI in [7], in experiment [8], in experiment [9] and in experiment [10] was over 100 µM each time.
As for `CCc1nc2ccc(NCCN(C)C)c3c(=O)c4ccccc4n1c23`, the TGI in [1] is 5.36 µM; in experiment [2], 6.42 µM; in [3] it was 22 µM; in experiment [4] it was 16.5 µM; in [5] it was 6.98 µM; in experiment [6], 4.66 µM. In addition, the TGI was 8.06 µM in experiment [7], 3.38 µM in [8], 4.76 µM in experiment [9] and 5.8 µM in experiment [10].
